Experimental data from the NIST ThermoML archive (doi:10.1016/j.tca.2005.04.030).
± gives the expanded uncertainty stated by the source.

Key:
[1] = 101.33 kPa, Liquid; for mass density: 298.1 K, Vibrating tube method; for speed of sound: 298.15 K, Anton Paar DSA 48
[2] = refractive index (Na D-line) (dimensionless); conditions: 298.1 K, 101.33 kPa, Liquid

| SMILES | mass density [1] | speed of sound [1] | refractive index ([2]; Anton Paar DSA 48) | refractive index ([2]; ATAGO RX-1000) |
| --- | --- | --- | --- | --- |
| CCCCOC(C)(C)C [butane, 1-(1,1-dimethylethoxy)-] | 757.57 ± 0.17 kg/m3 | 1113 ± 2 m/s | 1.3917 ± 5e-05 | – |
| CCO [ethanol] | 785.22 ± 0.25 kg/m3 | 1143 ± 2 m/s | – | 1.3592 ± 0.00011 |
| CO [methanol] | 786.63 ± 0.25 kg/m3 | 1101 ± 2 m/s | – | 1.3264 ± 0.0002 |
| O [water] | – | – | – | 1.3325 ± 8e-05 |
